# Data: paper doi:10.1101/2021.04.08.439011v1 (biorxiv, 2021)
# Where two headings read alike, the source gives them in different places.
# Key:
# [1] = target: PAK3 (Homo sapiens, UniProt O75914); settings: 0.1 µM; binder
# [2] = target: MKK7 (Homo sapiens, UniProt O14733); settings: 0.1 µM; binder
# [3] = target: CLK3 (Homo sapiens, UniProt P49761); settings: 0.1 µM; binder
# [4] = target: SBK1 (Homo sapiens, UniProt Q52WX2); settings: 0.1 µM; binder
# [5] = target: RET(V804M) (Homo sapiens, UniProt P07949, V804M); settings: 0.1 µM; binder
# RET(V804M), sequence (P07949 whole entry V804M): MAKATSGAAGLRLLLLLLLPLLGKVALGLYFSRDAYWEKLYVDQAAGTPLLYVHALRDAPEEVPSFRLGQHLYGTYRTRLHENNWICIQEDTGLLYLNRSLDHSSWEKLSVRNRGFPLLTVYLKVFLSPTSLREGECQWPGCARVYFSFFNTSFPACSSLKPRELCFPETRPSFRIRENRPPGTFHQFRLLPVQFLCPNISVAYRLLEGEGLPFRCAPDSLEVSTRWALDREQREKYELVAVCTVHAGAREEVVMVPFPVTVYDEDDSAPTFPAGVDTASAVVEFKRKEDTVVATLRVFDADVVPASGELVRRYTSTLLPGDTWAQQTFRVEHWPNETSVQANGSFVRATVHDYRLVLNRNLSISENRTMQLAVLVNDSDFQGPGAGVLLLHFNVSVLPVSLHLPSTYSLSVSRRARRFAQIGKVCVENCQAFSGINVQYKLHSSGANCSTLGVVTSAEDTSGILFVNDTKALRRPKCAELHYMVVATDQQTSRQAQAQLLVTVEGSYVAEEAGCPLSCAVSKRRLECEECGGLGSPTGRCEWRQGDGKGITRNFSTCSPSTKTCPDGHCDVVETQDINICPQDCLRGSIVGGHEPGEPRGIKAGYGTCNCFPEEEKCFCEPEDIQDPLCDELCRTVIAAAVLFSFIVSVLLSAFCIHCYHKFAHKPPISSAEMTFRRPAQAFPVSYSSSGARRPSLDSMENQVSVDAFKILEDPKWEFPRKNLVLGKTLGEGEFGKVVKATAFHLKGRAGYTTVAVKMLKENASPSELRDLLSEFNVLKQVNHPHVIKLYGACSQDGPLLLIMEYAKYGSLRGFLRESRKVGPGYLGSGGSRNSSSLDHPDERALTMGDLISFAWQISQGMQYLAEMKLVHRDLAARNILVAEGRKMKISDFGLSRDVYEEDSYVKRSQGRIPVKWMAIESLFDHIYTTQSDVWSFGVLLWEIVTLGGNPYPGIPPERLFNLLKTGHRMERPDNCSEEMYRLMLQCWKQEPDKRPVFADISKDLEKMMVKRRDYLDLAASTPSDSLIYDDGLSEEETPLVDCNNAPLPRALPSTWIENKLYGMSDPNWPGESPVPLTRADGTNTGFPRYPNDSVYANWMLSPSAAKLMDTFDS
# [6] = target: PCTK2 (Homo sapiens, UniProt Q00537); settings: 0.1 µM; binder
# [7] = target: TRPM6 (Homo sapiens, UniProt Q9BX84); settings: 0.1 µM; binder
# TRPM6, sequence (Q9BX84 whole entry): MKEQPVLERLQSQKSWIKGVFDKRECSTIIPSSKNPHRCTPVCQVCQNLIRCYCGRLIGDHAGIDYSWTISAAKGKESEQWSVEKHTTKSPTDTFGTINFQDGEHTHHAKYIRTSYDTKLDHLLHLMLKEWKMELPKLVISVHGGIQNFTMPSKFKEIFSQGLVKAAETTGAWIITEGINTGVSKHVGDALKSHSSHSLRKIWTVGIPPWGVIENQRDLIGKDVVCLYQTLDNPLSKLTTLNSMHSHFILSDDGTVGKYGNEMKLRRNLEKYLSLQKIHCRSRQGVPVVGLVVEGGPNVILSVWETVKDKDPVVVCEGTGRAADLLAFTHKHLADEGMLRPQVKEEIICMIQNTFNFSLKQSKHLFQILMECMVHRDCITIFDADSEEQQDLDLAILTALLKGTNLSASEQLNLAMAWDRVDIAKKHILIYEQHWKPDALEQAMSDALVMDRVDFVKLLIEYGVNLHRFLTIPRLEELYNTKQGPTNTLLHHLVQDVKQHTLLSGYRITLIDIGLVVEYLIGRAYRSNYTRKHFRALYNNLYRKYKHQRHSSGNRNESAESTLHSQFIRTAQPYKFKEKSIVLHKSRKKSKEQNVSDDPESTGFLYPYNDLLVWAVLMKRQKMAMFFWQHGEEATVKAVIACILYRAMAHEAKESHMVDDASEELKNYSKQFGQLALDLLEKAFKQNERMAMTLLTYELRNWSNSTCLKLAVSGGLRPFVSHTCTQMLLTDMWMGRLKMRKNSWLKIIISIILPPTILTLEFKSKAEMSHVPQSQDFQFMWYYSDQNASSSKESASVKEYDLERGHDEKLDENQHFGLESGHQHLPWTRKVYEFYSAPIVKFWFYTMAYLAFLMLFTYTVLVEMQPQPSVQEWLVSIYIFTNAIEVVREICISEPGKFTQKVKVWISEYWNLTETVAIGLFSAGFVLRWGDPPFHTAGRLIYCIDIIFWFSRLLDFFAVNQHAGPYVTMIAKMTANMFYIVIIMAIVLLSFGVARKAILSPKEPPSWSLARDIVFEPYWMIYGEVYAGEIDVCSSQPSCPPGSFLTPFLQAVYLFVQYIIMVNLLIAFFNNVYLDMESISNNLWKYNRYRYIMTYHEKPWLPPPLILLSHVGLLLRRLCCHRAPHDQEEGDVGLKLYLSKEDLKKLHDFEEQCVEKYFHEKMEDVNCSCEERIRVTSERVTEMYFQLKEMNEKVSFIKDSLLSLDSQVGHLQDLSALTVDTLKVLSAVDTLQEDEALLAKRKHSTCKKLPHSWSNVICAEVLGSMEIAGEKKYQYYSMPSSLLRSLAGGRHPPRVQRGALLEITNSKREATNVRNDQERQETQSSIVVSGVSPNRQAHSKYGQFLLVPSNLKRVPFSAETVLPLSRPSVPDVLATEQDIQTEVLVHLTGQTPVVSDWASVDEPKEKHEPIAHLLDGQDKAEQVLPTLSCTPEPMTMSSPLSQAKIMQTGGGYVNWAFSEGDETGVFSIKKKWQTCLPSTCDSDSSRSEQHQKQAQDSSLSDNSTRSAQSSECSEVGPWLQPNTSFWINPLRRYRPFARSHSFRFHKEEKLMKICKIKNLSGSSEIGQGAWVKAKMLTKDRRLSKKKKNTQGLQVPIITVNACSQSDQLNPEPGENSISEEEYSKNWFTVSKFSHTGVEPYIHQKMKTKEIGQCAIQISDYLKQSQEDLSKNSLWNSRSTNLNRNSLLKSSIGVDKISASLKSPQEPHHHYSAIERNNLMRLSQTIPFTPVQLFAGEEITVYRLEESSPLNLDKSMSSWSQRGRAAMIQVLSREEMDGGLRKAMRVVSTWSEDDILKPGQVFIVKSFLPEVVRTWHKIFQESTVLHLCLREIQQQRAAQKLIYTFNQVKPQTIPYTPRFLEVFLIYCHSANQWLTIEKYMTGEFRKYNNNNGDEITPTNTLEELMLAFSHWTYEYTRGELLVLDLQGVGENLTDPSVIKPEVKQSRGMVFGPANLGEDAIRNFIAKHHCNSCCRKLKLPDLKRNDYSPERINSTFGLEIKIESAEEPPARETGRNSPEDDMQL
# [8] = target: FLT3(D835Y) (Homo sapiens, UniProt P36888, D835Y); settings: 0.1 µM; binder
# [9] = target: IKK-epsilon (Homo sapiens, UniProt Q14164); settings: 0.1 µM; binder
# [10] = target: PAK7 (Homo sapiens, UniProt Q9P286); settings: 0.1 µM; binder
# [11] = target: MYLK2 (Homo sapiens, UniProt Q9H1R3); settings: 0.1 µM; binder
# [12] = target: PKAC-alpha (Homo sapiens, UniProt P17612); settings: 0.1 µM; binder
# [13] = target: CSNK2A1 (Homo sapiens, UniProt P68400); settings: 0.1 µM; binder
# [14] = target: PIK3CA(E542K) (Homo sapiens, UniProt P42336, E542K); settings: 0.1 µM; binder
# [15] = target: EIF2AK1 (Homo sapiens, UniProt Q9BQI3); settings: 0.1 µM; binder
# [16] = target: IRAK1 (Homo sapiens, UniProt P51617); settings: 0.1 µM; binder
# [17] = target: CSNK2A2 (Homo sapiens, UniProt P19784); settings: 0.1 µM; binder
# [18] = target: PAK4 (Homo sapiens, UniProt O96013); settings: 0.1 µM; binder
# [19] = target: EPHA5 (Homo sapiens, UniProt P54756); settings: 0.1 µM; binder
# [20] = target: MAP4K5 (Homo sapiens, UniProt Q9Y4K4); settings: 0.1 µM; binder
# [21] = target: MARK3 (Homo sapiens, UniProt P27448); settings: 0.1 µM; binder
# [22] = target: PIKFYVE (Homo sapiens, UniProt Q9Y2I7); settings: 0.1 µM; binder
# [23] = target: ERK8 (Homo sapiens, UniProt Q8TD08); settings: 0.1 µM; binder
# [24] = target: AURKC (Homo sapiens, UniProt Q9UQB9); settings: 0.1 µM; binder
# AURKC, sequence (Q9UQB9 whole entry): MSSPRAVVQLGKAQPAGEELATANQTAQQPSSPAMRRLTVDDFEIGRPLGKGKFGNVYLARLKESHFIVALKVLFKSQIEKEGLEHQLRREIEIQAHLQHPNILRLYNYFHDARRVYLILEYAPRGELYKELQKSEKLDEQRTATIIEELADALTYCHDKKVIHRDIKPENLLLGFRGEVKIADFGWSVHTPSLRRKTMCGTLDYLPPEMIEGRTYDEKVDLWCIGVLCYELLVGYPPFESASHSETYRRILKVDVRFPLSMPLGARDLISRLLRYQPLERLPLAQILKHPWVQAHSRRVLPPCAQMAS
# [25] = target: FLT3(ITD,F691L) (Homo sapiens, UniProt P36888, F691L/ITD); settings: 0.1 µM; binder
# [26] = target: MAST1 (Homo sapiens, UniProt Q9Y2H9); settings: 0.1 µM; binder
# [27] = target: VRK2 (Homo sapiens, UniProt Q86Y07); settings: 0.1 µM; binder
# VRK2, sequence (Q86Y07 whole entry): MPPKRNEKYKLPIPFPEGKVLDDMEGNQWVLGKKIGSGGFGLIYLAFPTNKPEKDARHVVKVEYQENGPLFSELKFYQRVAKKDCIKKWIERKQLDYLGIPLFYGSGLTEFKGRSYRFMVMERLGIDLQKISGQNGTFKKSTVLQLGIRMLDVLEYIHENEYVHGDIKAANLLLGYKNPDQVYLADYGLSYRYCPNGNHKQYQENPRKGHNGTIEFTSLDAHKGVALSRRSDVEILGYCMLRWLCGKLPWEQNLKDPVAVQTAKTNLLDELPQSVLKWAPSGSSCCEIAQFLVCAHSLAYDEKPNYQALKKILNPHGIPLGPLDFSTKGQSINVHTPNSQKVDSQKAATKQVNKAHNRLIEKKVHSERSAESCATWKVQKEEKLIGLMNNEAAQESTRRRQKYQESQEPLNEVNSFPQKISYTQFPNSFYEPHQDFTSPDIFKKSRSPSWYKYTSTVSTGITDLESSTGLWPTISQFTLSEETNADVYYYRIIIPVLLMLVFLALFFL
# [28] = target: PLK2 (Homo sapiens, UniProt Q9NYY3); settings: 0.1 µM; binder
# [29] = target: MKNK1 (Homo sapiens, UniProt Q9BUB5); settings: 0.1 µM; binder
# [30] = target: TNNI3K (Homo sapiens, UniProt Q59H18); settings: 0.1 µM; binder
# TNNI3K, sequence (Q59H18 whole entry): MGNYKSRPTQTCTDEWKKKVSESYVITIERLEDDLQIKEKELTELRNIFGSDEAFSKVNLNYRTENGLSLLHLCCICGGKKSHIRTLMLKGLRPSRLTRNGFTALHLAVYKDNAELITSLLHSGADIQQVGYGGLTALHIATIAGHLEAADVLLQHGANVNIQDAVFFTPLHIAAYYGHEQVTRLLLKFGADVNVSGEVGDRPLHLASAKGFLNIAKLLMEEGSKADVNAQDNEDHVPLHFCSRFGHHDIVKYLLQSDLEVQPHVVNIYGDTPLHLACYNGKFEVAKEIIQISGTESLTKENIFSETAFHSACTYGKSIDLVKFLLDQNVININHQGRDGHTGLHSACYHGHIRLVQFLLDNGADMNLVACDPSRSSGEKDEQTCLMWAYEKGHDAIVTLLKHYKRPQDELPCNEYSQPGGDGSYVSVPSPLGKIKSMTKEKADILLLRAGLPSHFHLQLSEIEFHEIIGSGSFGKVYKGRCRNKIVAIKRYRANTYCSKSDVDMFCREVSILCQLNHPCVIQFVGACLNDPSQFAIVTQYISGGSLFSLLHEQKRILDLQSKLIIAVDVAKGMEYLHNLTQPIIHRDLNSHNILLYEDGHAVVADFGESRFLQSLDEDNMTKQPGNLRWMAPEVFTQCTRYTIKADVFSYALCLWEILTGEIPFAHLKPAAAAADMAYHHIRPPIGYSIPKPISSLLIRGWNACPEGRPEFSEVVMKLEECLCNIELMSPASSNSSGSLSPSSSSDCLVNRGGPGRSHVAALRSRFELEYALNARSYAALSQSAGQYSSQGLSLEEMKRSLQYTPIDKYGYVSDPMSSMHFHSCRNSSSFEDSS
# [31] = target: ABL1(Q252H) (Homo sapiens, UniProt P00519, Q252H); settings: 0.1 µM, binder
compound,measurement,setting,value
"CNc1ncc2cc(-c3ccc(-c4cccc(C)n4)cc3Cl)c(=O)n(C[C@H]3OC[C@H](N)CO3)c2n1 [compound 6, G-5555]",Percent Control,[1],100%
same,Percent Control,[2],86%
same,Percent Control,[3],100%
same,Percent Control,[4],98%
same,Percent Control,[5],86%
same,Percent Control,[6],100%
same,Percent Control,[7],100%
same,Percent Control,[8],94%
same,Percent Control,[9],100%
same,Percent Control,[10],100%
same,Percent Control,[11],93%
same,Percent Control,[12],100%
same,Percent Control,[13],88%
same,Percent Control,[14],89%
same,Percent Control,[15],97%
same,Percent Control,[16],97%
same,Percent Control,[17],96%
same,Percent Control,[18],100%
same,Percent Control,[19],100%
same,Percent Control,[20],18%
same,Percent Control,[21],45%
same,Percent Control,[22],100%
same,Percent Control,[23],100%
same,Percent Control,[24],37%
same,Percent Control,[25],56%
same,Percent Control,[26],47%
same,Percent Control,[27],94%
same,Percent Control,[28],75%
same,Percent Control,[29],100%
same,Percent Control,[30],100%
same,Percent Control,[31]; nonphosphorylated,86%
same,Percent Control,[31]; phosphorylated,97%
